Assay results published in US6921766B1, “Blood vessel lipid deposition-preventive agent comprising chymase-inhibitor” (Daiichi Suntory Pharma Co., Ltd., priority 1999, dated 2005).
Entries after “also recorded” stand apart in the source; their conditions may differ.

Experiments:
[1] = human, pH 7.2
Method: 2 μl of 1 mM test sample in DMSO was added to 198 μl of 50% of human plasma solution in a 50 mM sodium phosphate buffer (pH 7.2) and incubated at 30° C. At 0, 5, and 15 minutes, 800 μl of acetonitrile was added to the test sample-plasma mixture, which was mixed and deproteinized. The supernatant obtained by centrifugation (12,000 rpm, one minute) was diluted with the same volume of distilled water, and the intact compound in the solution was determined by HPLC analysis.
The half life (t1/2) of the test sample in the plasma solution was calculated from the recovery at each time point using an exponential regression analysis.

Human heart chymase = biological target: T1, Human heart chymase (Homo sapiens, UniProt P23946); experiment: Inhibitory activity of test compounds to human chymase (Suc-Ala-Ala-Pro-Phe-MCA substrate); type: biochemical; conditions: purified human heart chymase, preincubated 10 min at 30° C., pH 7.5
T1 construct: Human heart chymase was purified according to the method of Urata et al; from tissue; host or cells: human heart
T1 sequence (P23946 22-247): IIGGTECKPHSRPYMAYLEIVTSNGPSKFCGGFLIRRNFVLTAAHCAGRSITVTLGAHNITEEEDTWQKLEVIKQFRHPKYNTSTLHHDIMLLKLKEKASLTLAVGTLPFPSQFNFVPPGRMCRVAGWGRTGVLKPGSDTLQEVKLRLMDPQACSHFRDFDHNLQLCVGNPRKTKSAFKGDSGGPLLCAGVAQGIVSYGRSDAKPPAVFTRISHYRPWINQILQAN
Method: Human heart chymase was purified according to the method of Urata et al. (J. Biol. Chem. 265: 22348, 1990). The inhibitory activity of the compound of the present invention was determined as follows. Purified enzyme was diluted with 0.1 M Tris-HCl buffer (pH 7.5) containing 1 M sodium chloride and 0.01% Triton X-100 to appropriate concentrations. Suc-Ala-Ala-Pro-Phe-MCA (Peptide Institute Inc.) was dissolved in 10 mM dimethyl sulfoxide (hereinafter referred to as DMSO) and diluted 20-fold with 0.1 M Tris-HCl buffer (pH 7.5) containing 1 M sodium chloride and 0.01% Triton X-100 to an appropriate concentration to prepare substrate solution.
5 μl of the test sample in DMSO was added to 75 μl of the enzyme solution and preincubated at 30° C. for 10 minutes. Then, 20 μl of the substrate solution was added to the test sample-enzyme mixture, and incubated at 30° C. Ten minutes later, 50 μl of 30% acetic acid was added to stop the enzymatic reaction, and the amount of AMC formed was determined using a fluorophotometer. At the same time, 5 μl of DMSO in stead of the test sample was added and reacted simultaneously as a control. The inhibitory activity to human chymase was calculated based on the value of the control, and then the inhibition percentage and the 50% inhibition concentration (IC50) were determined.

[2] = tested on: lipid deposition in the aorta; experiment: Aortic lipid deposition model in hamster induced by high-cholesterol diet; type: in vivo, Golden Syrian hamsters; conditions: 100 mg/kg/day orally for 12 weeks
Method: An aorta lipid deposition model was induced by a high-cholesterol diet. A high-cholesterol diet was prepared by adding 0.5% cholesterol and 10% coconut oil (KBT Oriental Co.) to a standard rodent feed containing 5.1% fat and 0.07% cholesterol (KBT oriental Co.). 8-week-old male Golden Syrian hamsters (KBT Oriental Co.) (100-130 g) were given the high-cholesterol diet for 12 weeks to induce lipid deposition in the aorta. A group to which a standard rodent feed was given for 12 weeks was used as the control.
An aortic lipid deposition model was generated as described in Example 3 and used as the high-cholesterol diet group (n=6). A group that received the standard rodent diet for 12 weeks was used as the control group (n=6). […]
The effect on lipid deposition by the chymase no inhibitor was evaluated by harvesting the aorta on week 12 after the start of the high-cholesterol diet and performing a histopathological analysis. […]
Then, the sections were washed with 60% isopropanol and distilled water, and counterstained with hematoxylin for 2 minutes. After washing with 1/4 saturated LiCO3, lipid deposition was evaluated by microscopic observation. Also, the area of the lipid deposition region (the region stained to an orange color with Oil red O) was quantitated on the histological pictures by NIH Image software ver. […]

| SMILES | t1/2 (plasma half life) [1] | IC50 (Human heart chymase) | lipid deposition area in the aortic cusp region ([2]; FIG. 1, monosodium salt, 100 mg/kg/day) | lipid deposition in the aorta (microscopic examination of the aortic cusp) ([2]; Oil red O staining) |
| --- | --- | --- | --- | --- |
| CC(C(=O)O)C(=O)Nc1cccc(S(=O)(=O)n2c(=O)[nH]c3cc(Cl)ccc3c2=O)c1 (centres unmarked) [Compound 13, 2-{3-[(7-chloro-2,4(1H,3H)-quinazolinedione-3-yl)sulfonyl]phenylaminocarbonyl}propionic acid] | 1.62 h | 300 nM | – | – |
| O=C(O)C1Oc2ccc(S(=O)(=O)n3c(=O)[nH]c4cc(Cl)ccc4c3=O)cc2NC1=O (racemic) [Compound 29, (±)-6-[(7-chloro-2,4(1H,3H)-quinazolinedione-3-yl)sulfonyl]-3-oxo-1,4-benzoxadine-2-carboxylic acid] | – | 1700 nM | – | – |
| Nc1cc(S(=O)(=O)n2c(=O)[nH]c3cc(Cl)ccc3c2=O)ccc1C(=O)[O-].[Na+] [Compound 18, 4-[(7-chloro-2,4(1H,3H)-quinazolinedione-3-yl)sulfonyl]anthranilic acid monosodium salt] | – | – | decreased; also recorded: significantly suppressed | completely disappeared |
